Reference: PMC7083837 (Nature Communications, 2020)
Where “and” joins values, the source holds several entries; their conditions need not be identical. Identical values can stand only once.

Tests used:
[1] = target: T1, SERT WT (Homo sapiens, UniProt P31645); test: [3H]5-HT uptake in intact COS-7 cells; assay type: cell-based; design: 5-HT uptake: unit not given here; conditions: for 5-HT uptake: Fig 5B
T1 construct: expressed in transfected cells; host or cells: COS-7

[2] = target: T1, SERT WT; test: [3H]IMI dissociation rate assay (allosteric potency); assay type: binding;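 further: membranes of COS-7 cells transiently expressing hSERT, dissociation of prebound radioligand tracked by filtration over seven time points (5–70 min), rate constant with test ligand expressed relative to buffer-only rate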
[3] = target: T2, SERT A331D (Homo sapiens, UniProt P31645, A331D); test: [3H]IMI dissociation rate assay; assay type: binding
T2 construct: expressed in transfected cells; host or cells: COS-7
Method: (§1) All mutations were confirmed by DNA sequencing. The used primers were
(§2) The allosteric potency was calculated as previously described.

[4] = target: T3, SERT F556L (Homo sapiens, UniProt P31645, F556L); test: [3H]IMI dissociation rate assay; assay type: binding
T3 construct: expressed in transfected cells; host or cells: COS-7
Method: as §1, §2

[5] = target: T4, SERT E494K (Homo sapiens, UniProt P31645, E494K); test: [3H]IMI dissociation rate assay; assay type: binding
T4 construct: expressed in transfected cells; host or cells: COS-7
Method: as §1, §2

[6] = target: T5, SERT I179F (Homo sapiens, UniProt P31645, I179F); test: [3H]IMI dissociation rate assay; assay type: binding
T5 construct: expressed in transfected cells; host or cells: COS-7
Method: as §1, §2

[7] = target: T6, SERT D328N (Homo sapiens, UniProt P31645, D328N); test: [3H]IMI dissociation rate assay; assay type: binding
T6 construct: expressed in transfected cells; host or cells: COS-7
Method: as §1, §2

[8] = target: T1, SERT WT; test: [3H]S-CIT dissociation rate assay (allosteric potency); assay type: binding

- 5-HT uptake ([1]; 0.2395 µM 5HT, 640 nM AF60097): 119.3 and 114.2 and 108 and 121.2
- 5-HT uptake ([1]; 0.4844 µM 5HT, 10 nM AF60097): 585
- 5-HT uptake ([1]; 0.4844 µM 5HT, 320 nM AF60097): 301.6 and 284.3 and 264.9
- 5-HT uptake relative to ctrl (ctrl = 100) ([1]; Fig 5C, 27 nM AF60097): 100 and 97 and 96 and 91 and 88
- [^3H]5-HT uptake (in % of buffer/control) ([1]; IMI 4 nM, Lu AF60097 27 nM, alone or together): 95 ± 1.8%
- Ki ([1]; SERT WT): 220 nM
- IC50 ([1]; hSERT in COS-7 cells): 207 nM
- Higher allosteric potency with prebound [^3H]IMI relative to prebound [^3H]S-CIT ([2]; SERT WT): 200 fold
- [^3H]IMI dissociation relative to control (source data Fig 3C) ([2]; SERT WT, log conc -5.4318): 0.0325
- [^3H]IMI dissociation relative to control (source data Fig 3C) ([2]; SERT WT, log conc -8.7712): 0.9679 and 0.8619
- IC50 ([2]; SERT WT, read-out: Allosteric potency inhibition of [^3H]IMI dissociation (IC50)): 31.4 nM and 31 nM
- Gain in allosteric potency relative to any other reported S2-bound hSERT ligand ([2]; comparison with ref 22): > 100 fold
- Increase in allosteric potency compared with citalopram ([2]; in the presence of S1:IMI): > 150 fold
- ΔAP (mut/WT), change in allosteric potency relative to SERT WT ([3]; A331D, [^3H]IMI dissociation): 293
- [^3H]IMI dissociation relative to control (source data Fig 4B) ([3]; A331D, log conc -4.478): 0.2078 and 0.1902 and 0.1898
- [^3H]IMI dissociation relative to control (source data Fig 4B) ([3]; A331D, log conc -4.955): 0.4404 and 0.4549 and 0.4274
- [^3H]IMI dissociation relative to control (source data Fig 4B) ([3]; A331D, log conc -5.432): 0.7451 and 0.6969 and 0.749
- [^3H]IMI dissociation relative to control (source data Fig 4B) ([3]; A331D, log conc -5.91): 0.8665 and 0.8882 and 0.9518
- [^3H]IMI dissociation relative to control (source data Fig 4B) ([3]; A331D, log conc -6.386): 0.9951 and 1.0052 and 1.0336
- [^3H]IMI dissociation relative to control (source data Fig 4B) ([3]; A331D, log conc -6.863): 1.0294 and 1.1129 and 0.9351
- [^3H]IMI dissociation relative to control (source data Fig 4B) ([3]; A331D, log conc -7.34): 0.9855 and 0.9441 and 1.0485
- IC50 ([3]; SERT A331D (TM6), read-out: Lu AF60097 allosteric potency ([^3H]IMI dissociation IC50)): 9100 nM
- ΔAP (mut/WT), change in allosteric potency relative to SERT WT ([4]; F556L, [^3H]IMI dissociation): 10
- IC50 ([4]; SERT F556L (TM11), read-out: Lu AF60097 allosteric potency ([^3H]IMI dissociation IC50)): 330 nM
- ΔAP (mut/WT), change in allosteric potency relative to SERT WT ([5]; E494K, [^3H]IMI dissociation): 286
- [^3H]IMI dissociation relative to control (source data Fig 4B) ([5]; E494K, log conc -5.432): 0.0801 and 0.1174 and 0.0764
- [^3H]IMI dissociation relative to control (source data Fig 4B) ([5]; E494K, log conc -5.91): 0.1958 and 0.2217 and 0.1263
- [^3H]IMI dissociation relative to control (source data Fig 4B) ([5]; E494K, log conc -6.386): 0.3078 and 0.3762 and 0.3174
- [^3H]IMI dissociation relative to control (source data Fig 4B) ([5]; E494K, log conc -6.863): 0.5705 and 0.5743 and 0.4488
- [^3H]IMI dissociation relative to control (source data Fig 4B) ([5]; E494K, log conc -7.34): 0.7153 and 0.7476 and 0.7791
- [^3H]IMI dissociation relative to control (source data Fig 4B) ([5]; E494K, log conc -7.817): 0.8258 and 0.83 and 0.9008
- [^3H]IMI dissociation relative to control (source data Fig 4B) ([5]; E494K, log conc -8.294): 0.8606 and 0.9262 and 0.8913
- IC50 ([5]; SERT E494K (TM10), read-out: Lu AF60097 allosteric potency ([^3H]IMI dissociation IC50)): 8900 nM
- ΔAP (mut/WT), change in allosteric potency relative to SERT WT ([6]; I179F, [^3H]IMI dissociation): 14
- [^3H]IMI dissociation relative to control (source data Fig 4B) ([6]; I179F, log conc -7.817): 0.8727 and 0.9098
- IC50 ([6]; SERT I179F (TM3), read-out: Lu AF60097 allosteric potency ([^3H]IMI dissociation IC50)): 440 nM
- ΔAP (mut/WT), change in allosteric potency relative to SERT WT ([7]; D328N, [^3H]IMI dissociation): 1.7
- IC50 ([7]; SERT D328N (TM6), read-out: Lu AF60097 allosteric potency ([^3H]IMI dissociation IC50)): 54 nM
- [^3H]S-CIT dissociation relative to control (source data Fig 3B) ([8]; log conc -4): 0.1541 and 0.1918 and 0.2298
- [^3H]S-CIT dissociation relative to control (source data Fig 3B) ([8]; log conc -6.86273): 0.9943 and 0.9294 and 0.9623
- IC50 ([8]; read-out: Allosteric potency inhibition of [^3H]S-CIT dissociation (IC50)): 6500 nM
SMILES: NC(=O)c1ccc2c(c1)CO[C@@]2(CCCN1CCC(c2ccc3ccc(=O)[nH]c3c2)CC1)c1ccc(F)cc1 [Lu AF60097, (S)-1-(4-fluorophenyl)-1-(3-(4-(2-oxo-1,2-dihydroquinolin-7-yl)piperidin-1-yl)propyl)-1,3-dihydroisobenzofuran-5-carboxamide]
- 5-HT uptake ([1]; 0.2395 µM 5HT, 20 nM AF60097): 431.1 and 402.3 and 370.8 and 428 and 381.2
- 5-HT uptake ([1]; 0.2395 µM 5HT, 80 nM AF60097): 239.4 and 237.2 and 197.1 and 278.1 and 258.3
- 5-HT uptake ([1]; 0.2395 µM 5HT, 160 nM AF60097): 283.1 and 275.9 and 262.8 and 254.3 and 202.5
- 5-HT uptake ([1]; 0.2395 µM 5HT, 320 nM AF60097): 170.4 and 178.2 and 155 and 215.5 and 193.6
- 5-HT uptake ([1]; 0.4844 µM 5HT, 20 nM AF60097): 624.2 and 642.2 and 563.4 and 555.8 and 512.1
- 5-HT uptake ([1]; 0.4844 µM 5HT, 160 nM AF60097): 469.4 and 426.6 and 404.6 and 365.9 and 356
- [^3H]IMI dissociation relative to control (source data Fig 3C) ([2]; SERT WT, log conc -7.3398): 0.5967 and 0.5153 and 0.3551 and 0.4862 and 0.4455
- [^3H]IMI dissociation relative to control (source data Fig 3C) ([2]; SERT WT, log conc -7.817): 0.6907 and 0.7383 and 0.5957 and 0.7538 and 0.5364
- [^3H]IMI dissociation relative to control (source data Fig 3C) ([2]; SERT WT, log conc -8.2941): 0.7767 and 0.8969 and 0.8389 and 0.8612 and 0.685
- [^3H]S-CIT dissociation relative to control (source data Fig 3B) ([8]; log conc -4.47756): 0.2646 and 0.3943 and 0.2986 and 0.219 and 0.3366
- [^3H]S-CIT dissociation relative to control (source data Fig 3B) ([8]; log conc -4.95468): 0.4248 and 0.6032 and 0.3921 and 0.3044 and 0.3481
- [^3H]S-CIT dissociation relative to control (source data Fig 3B) ([8]; log conc -5.4318): 0.6087 and 0.8042 and 0.6275 and 0.541 and 0.6453
- [^3H]S-CIT dissociation relative to control (source data Fig 3B) ([8]; log conc -5.9101): 0.7519 and 0.9034 and 0.8094 and 0.7437 and 0.8779
- [^3H]S-CIT dissociation relative to control (source data Fig 3B) ([8]; log conc -6.38561): 0.8673 and 0.9045 and 0.9664 and 0.838 and 0.8643
